≈ marks a conversion by molar mass, not a printed value.
Legend:
[1] = tested on: MRSA ATCC 700699 (NRS1, VISA); assay: MIC/MBC broth microdilution, NRS1 (ATCC 700699); assay type: cell-based; settings: Staphylococcus aureus; Table 2; MRSA ATCC 700699; read-out: Minimum Inhibitory Concentration
Outline: (§1)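 Compounds were tested in triplicate samples against each MRSA strain, and the MIC was then read by broth microdilution as recommended by CLSI.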

[2] = tested on: VISA HIP07256 (NRS19); assay: MIC/MBC broth microdilution, NRS19 (VISA HIP07256); assay type: cell-based; settings: Staphylococcus aureus; Table 2; VISA HIP07256; read-out: Minimum Inhibitory Concentration
Outline: as §1

[3] = tested on: VISA LIM 3 (NRS37); assay: MIC/MBC broth microdilution, NRS37 (VISA LIM 3); assay type: cell-based; settings: Staphylococcus aureus; Table 2; VISA LIM 3; read-out: Minimum Inhibitory Concentration
Outline: as §1

[4] = tested on: NRS107; assay: MIC/MBC broth microdilution, NRS107; assay type: cell-based; settings: Staphylococcus aureus, Table 2, read-out: Minimum Inhibitory Concentration
Outline: as §1

[5] = tested on: NRS108; assay: MIC broth microdilution, NRS108; assay type: cell-based; settings: Staphylococcus aureus, Table 2, read-out: Minimum Inhibitory Concentration
Procedure: (§2) Determination of minimum inhibitory concentration (MIC). The MICs of the lead thiazole compound (compound 1a) and nine derivatives tested against all 18 MRSA strains were determined, in triplicate samples, using the broth microdilution method in accordance with the recommendations contained in the CLSI guidelines.

[6] = tested on: NRS119; assay: MIC/MBC broth microdilution, NRS119; assay type: cell-based; settings: Staphylococcus aureus; Table 2; NRS119; read-out: Minimum Inhibitory Concentration
Outline: as §1

[7] = tested on: MRSA USA400 (NRS123); assay: MIC/MBC broth microdilution, NRS123 (USA400); assay type: cell-based; settings: Staphylococcus aureus; Table 2; MRSA USA400; read-out: Minimum Inhibitory Concentration
Outline: as §1

[8] = tested on: NRS194; assay: MIC/MBC broth microdilution, NRS194; assay type: cell-based; settings: Staphylococcus aureus, Table 2, read-out: Minimum Inhibitory Concentration
Outline: as §1

[9] = tested on: MRSA USA100; assay: MIC broth microdilution, MRSA USA100; assay type: cell-based; settings: Staphylococcus aureus; Table 2; MRSA USA100; read-out: Minimum Inhibitory Concentration
Procedure: as §2

[10] = tested on: MRSA USA200; assay: MIC broth microdilution, MRSA USA200; assay type: cell-based; settings: Staphylococcus aureus; Table 2; MRSA USA200; read-out: Minimum Inhibitory Concentration
Procedure: as §2

[11] = tested on: MRSA NRS384 (USA300); assay: MIC/MBC broth microdilution, NRS384 (USA300); assay type: cell-based; settings: Staphylococcus aureus; Table 2; MRSA USA300; read-out: Minimum Inhibitory Concentration
Outline: as §1

[12] = tested on: MRSA USA500 (NRS385); assay: MIC/MBC broth microdilution, NRS385 (USA500); assay type: cell-based; settings: Staphylococcus aureus; Table 2; MRSA USA500; read-out: Minimum Inhibitory Concentration
Outline: as §1

[13] = tested on: MRSA USA800; assay: MIC broth microdilution, MRSA USA800; assay type: cell-based; settings: Staphylococcus aureus, Table 2, read-out: Minimum Inhibitory Concentration
Procedure: as §2

[14] = tested on: VRSA (VRS10); assay: MIC/MBC broth microdilution, VRSA (VRS10); assay type: cell-based, Staphylococcus aureus; settings: Staphylococcus aureus; Table 2; VRSA; read-out: Minimum Inhibitory Concentration
Procedure: as §2

[15] = tested on: 18 different strains of MRSA and VRSA; assay: MIC broth microdilution, panel of 18 MRSA and VRSA strains (summary statements); assay type: cell-based, Staphylococcus aureus; settings: relative to lead compound 1a; number of strains as stated in the sentence
Procedure: as §2

[16] = tested on: murine macrophage cells (J774.A1); assay: In vitro cytotoxicity analysis, MTS assay; assay type: cell-based; settings: 16 μM, 24 hours
Procedure: In vitro cytotoxicity analysis: Compounds were assayed at concentrations of 2 μM, 4 μM, 8 μM, and 16 μM against a macrophage cell line (J774.A1) to determine the potential toxic effect in vitro. Murine macrophage cells were cultured in Dulbeco's Modified Eagle Medium (Sigma-Aldrich, St. Louis, Mo., USA) with 10% Fetal Bovine Serum (USA Scientific, Inc.) at 37° C. with 5% CO2. Controls received DMSO alone at a concentration equal to that in drug-treated cell samples. The cells were incubated with the compounds in a 96-Well Plate at 37° C. and 5.0% CO2 for 24 hours prior to addition of the assay reagent MTS 3-(4,5-dimethylthiazol-2-yl)-5-(3-carboxymethoxyphenyl)-2-(4-sulfophenyl)-2H-tetrazolium) (Promega, Madison, Wis., USA). The reagent measures the succinate dehydrogenase mitochondrial activity as an indicator of cell viability and proliferation. Corrected absorbance readings (actual absorbance readings for each treatment subtracted from background absorbance) were taken using a kinetic ELISA microplate reader (Molecular Devices, Sunnyvale, Calif., USA). The quantity of viable cells after treatment with each compound was expressed as a percentage of the control, DMSO.

[17] = tested on: MRSA USA1100; assay: MIC broth microdilution, MRSA USA1100; assay type: cell-based; settings: Staphylococcus aureus, Table 2, read-out: Minimum Inhibitory Concentration
Procedure: as §2

[18] = tested on: MRSA (USA300); assay: Time-kill assay; assay type: cell-based, Staphylococcus aureus; settings: 3.0×MIC
Procedure: Time-kill assay. […] Viable CFU/mL was determined by serial dilution and plating on trypticase soy agar (TSA) (Becton, Dickinson and Company, Sparks, Md., USA) plates after 0, 2, 4, 6, 8, 10, and 12 hours of incubation at 37° C. to identify the time required to reduce the bacterial cell count by 3-log10.

[19] = tested on: MRSA USA700; assay: MIC broth microdilution, MRSA USA700; assay type: cell-based; settings: Staphylococcus aureus, Table 2, read-out: Minimum Inhibitory Concentration
Procedure: as §2

[20] = tested on: MRSA ATCC 43300; assay: Flow cytometry with LIVE/DEAD Fixable Dead Cell Stain; assay type: cell-based, Staphylococcus aureus; settings: compound 1a at 4.0×MIC; lysostaphin positive control; 10 minutes at 37° C.
Procedure: Flow cytometry and LIVE/DEAD® Fixable Dead Cell Stain: The action of the lead compound on cell membrane permeability of MRSA was assayed using the LIVE/DEAD® Fixable Dead Cell Stain Kit (Invitrogen, Eugene, Oreg., USA) according to the manufacturer's instructions. […] Post-treatment cells were fixed with 3.7% formaldehyde; the cells were then screened with a Beckman Coulter FC500 flow cytometer.

Q: How did the MIC [1] turn out when `C/C(=N\NC(=N)N)c1sc(-c2ccc(C3=CCCCC3)cc2)nc1C` [Compound 7, 2-{1-[2-(4-(1-Cyclohexenyl)phenyl)-4-methylthiazol-5-yl]ethylidene}hydrazine-carboximidamide] was run?
A: 0.6 µg/mL (≈ 1.7 µM)

Q: What about the MIC [2] of the same compound?
A: 0.6 µg/mL (≈ 1.7 µM)

Q: What about the MIC [3] of the same compound?
A: 0.6 µg/mL (≈ 1.7 µM)

Q: And the MIC [4]?
A: 0.6 µg/mL (≈ 1.7 µM)

Q: What about the MIC [5] of the same compound?
A: 2.3 µg/mL (≈ 6.51 µM)

Q: And the MIC [6]?
A: 0.6 µg/mL (≈ 1.7 µM)

Q: And the MIC [7]?
A: 0.6 µg/mL (≈ 1.7 µM)

Q: And the MIC [8]?
A: 0.6 µg/mL (≈ 1.7 µM)

Q: What about the MIC [9] of the same compound?
A: 1.2 µg/mL (≈ 3.39 µM)

Q: What about the MIC [10] of the same compound?
A: 1.2 µg/mL (≈ 3.39 µM)

Q: And the MIC [11]?
A: 1.2 µg/mL (≈ 3.39 µM)

Q: What about the MIC [12] of the same compound?
A: 1.2 µg/mL (≈ 3.39 µM)

Q: What about the MIC [13] of the same compound?
A: 0.6 µg/mL (≈ 1.7 µM)

Q: And the MIC [14]?
A: 1.3 µg/mL (≈ 3.68 µM)

Q: What about the “improvement in the MIC value relative to the lead compound” value [15] of the same compound?
A: two- to four-fold improvement

Q: What about the “toxicity toward murine macrophage cells” value [16] of the same compound?
A: none were observed to be toxic

Q: What does the source list for `C/C(=N\NC(=N)N)c1sc(-c2ccc(C3CCCCC3)cc2)nc1C` [Compound 8, 2-{1-[2-(4-Cyclohexylphenyl)-4-methylthiazol-5-yl]ethylidene}hydrazinecarboximid-amide]?
A: MIC [1]: 0.7 µg/mL (≈ 1.97 µM); MIC [3]: 0.4 µg/mL (≈ 1.13 µM); MIC [4]: 0.7 µg/mL (≈ 1.97 µM); MIC [7]: 0.7 µg/mL (≈ 1.97 µM); MIC [10]: 1.5 µg/mL (≈ 4.22 µM); MIC [11]: 0.7 µg/mL (≈ 1.97 µM); MIC [12]: 0.7 µg/mL (≈ 1.97 µM); MIC [17]: 0.7 µg/mL (≈ 1.97 µM); improvement in the MIC value relative to the lead compound [15]: two- to four-fold improvement; bactericidal effect in time-kill assay ([18]; 12 hour incubation at 37° C.): bactericidal; time to eliminate MRSA completely (reduce CFU to zero) ([18]; MRSA (USA300)): six hours; toxicity toward murine macrophage cells [16]: none were observed to be toxic

Q: With `C/C(=N\NC(=N)N)c1sc(-c2ccc(-c3ccccc3)cc2)nc1C` [Compound 12, 2-{1-[2-([1,1′-Biphenyl]-4-yl)-4-methylthiazol-5-yl]ethylidene}hydrazinecarboximid-amide] as the compound, how does the MIC [1] read?
A: 0.6 µg/mL (≈ 1.72 µM)

Q: What about the MIC [5] of the same compound?
A: 2.4 µg/mL (≈ 6.87 µM)

Q: And the MIC [7]?
A: 0.6 µg/mL (≈ 1.72 µM)

Q: What about the MIC [8] of the same compound?
A: 1.2 µg/mL (≈ 3.43 µM)

Q: And the MIC [9]?
A: 2.4 µg/mL (≈ 6.87 µM)

Q: What about the MIC [11] of the same compound?
A: 1.2 µg/mL (≈ 3.43 µM)

Q: And the MIC [12]?
A: 1.2 µg/mL (≈ 3.43 µM)

Q: And the MIC [19]?
A: 0.6 µg/mL (≈ 1.72 µM)

Q: What about the MIC [17] of the same compound?
A: 0.6 µg/mL (≈ 1.72 µM)

Q: What about the MIC [14] of the same compound?
A: 1.2 µg/mL (≈ 3.43 µM)

Q: What about the “improvement in the MIC value relative to the lead compound” value [15] of the same compound?
A: two- to four-fold improvement

Q: What about the “toxicity toward murine macrophage cells” value [16] of the same compound?
A: none were observed to be toxic

Q: For “lysostaphin: positive control; disrupts the cross-linking of the pentaglycin bridges in the cell wall of staphylococci [reference compound]”, which “cells stained with the dye” value [20] is on record?
A: 45%
